Results from patent US5792775A (priority 1996, dated 1998).
Entries after “also recorded” stand apart in the source; their conditions may differ. Like-named read-outs stand apart in the source and are kept apart here.

How the values were obtained:
muscarinic m2 receptors = target: T1, muscarinic m2 receptors (Rattus norvegicus, UniProt P10980); assay: Muscarinic m2 receptor binding ([^3 H]AFDX 384), NOVASCREEN; conditions: for muscarinic m2 affinity relative to dopamine transporter affinity: in words
T1 sequence (P10980 1-466): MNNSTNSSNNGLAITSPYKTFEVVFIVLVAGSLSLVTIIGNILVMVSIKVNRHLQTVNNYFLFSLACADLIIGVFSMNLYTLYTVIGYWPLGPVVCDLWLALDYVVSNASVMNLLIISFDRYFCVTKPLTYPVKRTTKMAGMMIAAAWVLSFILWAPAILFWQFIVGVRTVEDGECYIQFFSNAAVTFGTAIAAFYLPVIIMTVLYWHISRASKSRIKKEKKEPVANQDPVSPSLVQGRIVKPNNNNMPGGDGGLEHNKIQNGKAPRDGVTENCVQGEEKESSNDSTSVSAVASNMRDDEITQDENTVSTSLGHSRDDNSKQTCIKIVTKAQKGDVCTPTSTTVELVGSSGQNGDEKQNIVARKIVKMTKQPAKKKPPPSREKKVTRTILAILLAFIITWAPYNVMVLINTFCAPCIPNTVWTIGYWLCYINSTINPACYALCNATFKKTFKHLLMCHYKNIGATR
Source text: (§1) Serotonin (5-HTT), norepinephrine transporter (NET) and muscarinic m1 and m2 receptor binding data were provided by NOVASCREEN.

[1] = tested on: dopamine uptake, rat caudate putamen; type: biochemical
[2] = target: serotonin transporter (5HTT) (Rattus norvegicus, UniProt P31652); assay: Serotonin transporter binding ([^3 H]citalopram), NOVASCREEN
Source text: as §1

[3] = target: T2, dopamine transporter (DAT) (Rattus norvegicus, UniProt P23977); assay: Displacement of [^3 H]WIN 35,428 binding (Dopamine Transporter Binding Assay); conditions: for Ki: Table III, displacement of [^3 H]WIN 35,428, rat caudate putamen, % error in parentheses
T2 construct: brains removed to an ice-cooled dish for dissection of the caudate putamen; from tissue; host or cells: rat caudate putamen, washed membranes of male Sprague-Dawley rats (Taconic)

muscarinic m1 receptors = target: T3, muscarinic m1 receptors (Rattus norvegicus, UniProt P08482); assay: biochemical; type: binding
T3 sequence (P08482 1-460): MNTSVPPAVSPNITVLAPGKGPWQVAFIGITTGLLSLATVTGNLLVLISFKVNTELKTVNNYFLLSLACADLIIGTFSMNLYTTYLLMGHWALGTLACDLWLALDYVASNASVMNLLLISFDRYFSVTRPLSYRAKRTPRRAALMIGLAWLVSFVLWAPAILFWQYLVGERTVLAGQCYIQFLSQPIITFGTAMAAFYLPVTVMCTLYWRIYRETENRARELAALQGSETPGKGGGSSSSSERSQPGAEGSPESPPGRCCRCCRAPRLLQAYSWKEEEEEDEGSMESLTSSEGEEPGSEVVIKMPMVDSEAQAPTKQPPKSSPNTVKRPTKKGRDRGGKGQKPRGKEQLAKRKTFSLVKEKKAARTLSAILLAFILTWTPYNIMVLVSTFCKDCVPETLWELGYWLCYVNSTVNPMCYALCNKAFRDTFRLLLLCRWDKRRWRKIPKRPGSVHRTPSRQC

[4] = target: norepinephrine transporter (NET) (Rattus norvegicus, UniProt Q63380); assay: biochemical; type: binding
[5] = Table V, rat caudate putamen, read-out: [^3 H]DA Uptake Inhibition IC50
[6] = Table IV, head prints no unit, IC50 in nM, read-out: [^3 H]DAU (inhibition of [^3 H]-Dopamine Uptake)
[7] = read-out: NET, % Inhibition at 10 μM
[8] = Table III, footnote d, read-out: 5HTT Ki value in nM (bracketed)
[9] = Table III footnote b, read-out: m2, % Inhibition of radiolabeled ligand binding

T2 sequence (P23977 whole entry): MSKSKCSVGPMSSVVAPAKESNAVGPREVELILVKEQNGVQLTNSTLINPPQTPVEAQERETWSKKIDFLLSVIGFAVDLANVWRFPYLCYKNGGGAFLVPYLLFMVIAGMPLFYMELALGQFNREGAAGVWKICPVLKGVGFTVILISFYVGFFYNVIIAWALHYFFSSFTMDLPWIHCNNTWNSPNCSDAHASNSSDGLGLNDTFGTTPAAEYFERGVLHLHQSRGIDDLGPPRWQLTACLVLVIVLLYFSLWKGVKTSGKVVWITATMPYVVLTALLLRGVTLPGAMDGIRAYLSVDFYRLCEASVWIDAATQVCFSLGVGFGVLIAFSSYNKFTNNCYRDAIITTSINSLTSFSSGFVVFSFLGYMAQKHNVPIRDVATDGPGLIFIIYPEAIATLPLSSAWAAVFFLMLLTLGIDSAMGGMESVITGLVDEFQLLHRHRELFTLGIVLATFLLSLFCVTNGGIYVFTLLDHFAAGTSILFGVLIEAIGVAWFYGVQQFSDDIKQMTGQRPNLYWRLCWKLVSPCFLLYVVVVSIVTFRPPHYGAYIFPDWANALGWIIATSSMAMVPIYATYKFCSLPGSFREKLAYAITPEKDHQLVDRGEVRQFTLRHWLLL
Chain of norepinephrine transporter (NET) (Q63380 1-617): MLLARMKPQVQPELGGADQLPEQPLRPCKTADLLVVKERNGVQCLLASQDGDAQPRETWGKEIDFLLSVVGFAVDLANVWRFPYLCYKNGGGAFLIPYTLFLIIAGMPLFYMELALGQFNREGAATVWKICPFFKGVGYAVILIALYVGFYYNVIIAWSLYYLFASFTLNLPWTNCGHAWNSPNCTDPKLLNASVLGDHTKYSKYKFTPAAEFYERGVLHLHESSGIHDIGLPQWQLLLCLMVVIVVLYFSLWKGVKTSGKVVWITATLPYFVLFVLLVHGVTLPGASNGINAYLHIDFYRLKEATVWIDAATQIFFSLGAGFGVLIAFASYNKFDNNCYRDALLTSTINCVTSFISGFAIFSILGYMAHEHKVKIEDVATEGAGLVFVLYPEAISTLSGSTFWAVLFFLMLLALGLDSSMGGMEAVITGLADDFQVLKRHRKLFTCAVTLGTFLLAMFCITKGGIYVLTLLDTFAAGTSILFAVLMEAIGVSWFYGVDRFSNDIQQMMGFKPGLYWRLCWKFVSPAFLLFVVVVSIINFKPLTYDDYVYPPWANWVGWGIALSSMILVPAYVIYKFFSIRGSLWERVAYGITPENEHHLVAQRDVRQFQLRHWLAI
Chain of serotonin transporter (5HTT) (P31652 whole entry): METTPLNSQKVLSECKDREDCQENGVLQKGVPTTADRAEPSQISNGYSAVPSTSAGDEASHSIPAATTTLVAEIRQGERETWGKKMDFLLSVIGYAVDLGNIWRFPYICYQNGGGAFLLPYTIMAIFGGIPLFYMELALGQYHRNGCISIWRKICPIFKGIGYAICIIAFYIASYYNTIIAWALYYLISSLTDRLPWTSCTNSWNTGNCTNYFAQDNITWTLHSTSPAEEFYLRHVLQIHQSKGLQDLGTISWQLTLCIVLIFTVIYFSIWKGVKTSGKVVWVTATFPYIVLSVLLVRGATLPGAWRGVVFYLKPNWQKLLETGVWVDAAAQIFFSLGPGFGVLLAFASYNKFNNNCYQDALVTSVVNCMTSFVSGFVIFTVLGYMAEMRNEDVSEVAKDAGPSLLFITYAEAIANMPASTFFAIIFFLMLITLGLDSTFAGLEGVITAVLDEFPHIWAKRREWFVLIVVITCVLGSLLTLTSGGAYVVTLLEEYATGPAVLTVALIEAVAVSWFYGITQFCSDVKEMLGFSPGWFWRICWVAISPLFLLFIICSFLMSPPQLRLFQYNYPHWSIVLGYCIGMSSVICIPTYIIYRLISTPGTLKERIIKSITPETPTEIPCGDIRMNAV

Row | Structure (SMILES) | Ki (muscarinic m2 receptors; Table III) | IC50 [1, 5] | inhibition at 10 µM ([2]; read-out: 5HTT (% I@10 μM)) | Ki [3] | Ki (muscarinic m1 receptors; Table III, read-out: m1, Ki) | inhibition at 10 µM ([4]; read-out: NET (% I@10 μM)) | IC50 [1, 6] | also measured
1 | CN1[C@@H]2CC[C@H]1C[C@@H](OC(c1ccccc1)c1ccc(Br)cc1)C2 (stereo partly drawn) [Compound 7h] | 39.1 nM | 29 nM | 39% | 37.9 nM | 3.7 nM | 37% | – | –
2 | Fc1ccc(CN2[C@@H]3CC[C@H]2C[C@@H](OC(c2ccc(F)cc2)c2ccc(F)cc2)C3)cc1 [JKW 009] | – | – | – | – | – | – | 204 nM | Ki [2]: 53.4 nM; Ki (muscarinic m1 receptors): 0.45 nM; inhibition at 10 µM [4, 7]: 60%
3 | CN1[C@@H]2CC[C@H]1C[C@@H](OC(c1ccccc1)c1ccc([N+](=O)[O-])cc1)C2 (stereo partly drawn) [Compound 7f] | 41.9 nM | 219 nM | 54% | 197 nM | 7.1 nM | 29% | – | Ki [2, 8]: > 3570 nM
4 | Fc1ccc(C(O[C@H]2C[C@H]3CC[C@@H](C2)N3CC=Cc2ccccc2)c2ccc(F)cc2)cc1 [AHN 2-006] | – | – | – | – | – | – | 184 nM | Ki (muscarinic m2 receptors; Table IV): 1590 nM; Ki [2]: 1490 nM; Ki (muscarinic m1 receptors): 240 nM; Ki [4]: 577 nM
5 | CN1[C@@H]2CC[C@H]1C[C@@H](OC(c1ccccc1)c1ccc(C(C)(C)C)cc1)C2 (stereo partly drawn) [Compound 7n] | – | 4460 nM | 24.7% | – | 148 nM | 37.6% | – | inhibition at 10 µM (muscarinic m2 receptors; [9]): 54%
6 | CN1[C@@H]2CC[C@H]1C[C@@H](OC(c1ccccc1)c1ccc(C(F)(F)F)cc1)C2 (stereo partly drawn) [Compound 7m] | 1510 nM | 2160 nM | 49.1% | 635 nM | 5.4 nM | 34.6% | – | selectivity for m1 over m2 sites (muscarinic m1 receptors; m1 vs. m2): ~300 fold
7 | CN1[C@@H]2CC[C@H]1C[C@@H](OC(c1ccccc1)c1ccc(C#N)cc1)C2 (stereo partly drawn) [Compound 7g] | 74 nM | 222 nM | 40% | 196 nM | – | 16% | – | Ki (muscarinic m1 receptors; read-out: m1, Ki): 7.1 nM
8 | Cc1ccc(C(O[C@H]2C[C@H]3CC[C@@H](C2)N3C)c2ccccc2)cc1 (stereo partly drawn) [Compound 7p] | 37.5 nM | 512 nM | 35.4% | 187 nM | 2.7 nM | 31.8% | – | –
9 | O=CN1[C@@H]2CC[C@H]1C[C@@H](OC(c1ccc(F)cc1)c1ccc(F)cc1)C2 [AHN 2-032] | – | – | – | – | – | – | 5380 nM | inhibition at 10 µM (muscarinic m2 receptors; Table IV footnote b, read-out: m2, % Inhibition at 10 μM): 62%; inhibition at 10 µM ([2]; Table IV footnote b, 10 μM, read-out: 5HHT, % Inhibition at 10 μM): 1.6%; inhibition at 10 µM (muscarinic m1 receptors; Table IV footnote b, 10 μM): 54%; inhibition at 10 µM [4, 7]: 29%
10 | C=CCN1[C@@H]2CC[C@H]1C[C@@H](OC(c1ccc(F)cc1)c1ccc(F)cc1)C2 [AHN 2-005, N-allyl-4',4"-difluorobenztropine] | – | – | – | – | – | – | 14 nM | Ki (muscarinic m2 receptors; Table IV): 254 nM; Ki [2]: 1970 nM; Ki (muscarinic m1 receptors; Table IV, read-out: m1, Ki): 89.1 nM; inhibition at 10 µM [4, 7]: 22.1%
11 | CN1[C@@H]2CC[C@H]1C[C@@H](OC(c1ccccc1)c1ccc(Cl)c(Cl)c1)C2 (stereo partly drawn) [Compound 7k] | 141 nM | 47 nM | 66.2% | 22.1 nM | 12.5 nM | 56.5% | – | Ki [2, 8]: > 1790 nM; Ki ([4]; read-out: NET Ki value in nM (bracketed), Table III, footnote d): > 4870 nM
12 | Fc1ccc(C(O[C@H]2C[C@H]3CC[C@@H](C2)N3)c2ccc(F)cc2)cc1 [AHN 2-003, N-nor-4',4"-difluorobenztropine] | – | – | – | – | – | – | 10 nM | Ki (muscarinic m2 receptors; Table IV): 620 nM; Ki (muscarinic m1 receptors; Table IV, read-out: m1, Ki): 90.7 nM; Ki [4]: > 8000 nM
13 | Fc1ccc(C(O[C@H]2C[C@H]3CC[C@@H](C2)N3Cc2ccccc2)c2ccc(F)cc2)cc1 [JHW 005] | – | – | – | – | – | – | 285 nM | Ki (muscarinic m2 receptors; Table IV): 276 nM; muscarinic m2 affinity relative to dopamine transporter affinity (muscarinic m2 receptors): significantly lower binding affinities at the muscarinic m1 and m2 receptors as compared to binding affinities at the dopamine transporter; Ki [2]: 1810 nM; Ki (muscarinic m1 receptors; Table IV, read-out: m1, Ki): 2490 nM; muscarinic m1 affinity relative to dopamine transporter affinity (muscarinic m1 receptors; in words): significantly lower binding affinities at the muscarinic m1 and m2 receptors as compared to binding affinities at the dopamine transporter
14 | COC(=O)[C@H]1[C@@H](c2ccc(F)cc2)C[C@@H]2CC[C@H]1N2C [[^3 H]WIN 35,428, 2β-carbomethoxy-3β-(4-fluorophenyl)tropane, reference compound] | – | – | – | – | – | – | – | Bmax, high affinity component of [^3 H]WIN 35,428 binding ([3]; high affinity component, LIGAND analysis): 445±338 fmol/mg protein; Bmax, low affinity component of [^3 H]WIN 35,428 binding ([3]; low affinity component, LIGAND analysis): 1995±559 fmol/mg protein
15 | CN1[C@@H]2CC[C@H]1C[C@@H](OC(c1ccc(Br)cc1)c1ccc(Br)cc1)C2 [Compound 7i] | – | 34 nM | 41% | 91.6 nM | – | 41.1% | – | inhibition at 10 µM (muscarinic m2 receptors; [9]): 66%; lower affinity for muscarinic m1 receptors than the parent benztropine (muscarinic m1 receptors): > 70 fold
16 | Fc1ccc(C(O[C@H]2C[C@H]3CC[C@@H](C2)N3CCCc2ccccc2)c2ccc(F)cc2)cc1 [JHW 010] | – | – | – | – | – | – | 227 nM | Ki (muscarinic m2 receptors; Table IV): 499 nM; Ki (muscarinic m1 receptors): 273 nM
17 | COC(=O)[C@H]1[C@@H](OC(=O)c2ccccc2)C[C@@H]2CC[C@H]1N2C [cocaine, reference compound] | – | – | – | – | – | – | – | mode of displacement of [^3 H]WIN 35,428 binding ([3]; monophasic vs. biphasic): biphasic displacement; also recorded: revealed two binding sites
18 | CN1[C@@H]2CC[C@H]1C[C@@H](OC(c1ccc(Cl)cc1)c1ccc(Cl)cc1)C2 [Compound 7b] | 1490 nM | – | – | – | – | 43% | – | Ki [4]: > 6000 nM
19 | CN1[C@@H]2CC[C@H]1C[C@@H](OC(c1ccccc1)c1ccc(Cl)cc1)C2 (stereo partly drawn) [Compound 7a, 4'-Cl-3α-(diphenylmethoxy)tropane] | – | 115 nM | 34% | – | – | 32% | – | –
20 | COc1ccc(C(O[C@H]2C[C@H]3CC[C@@H](C2)N3C)c2ccc(OC)cc2)cc1 [Compound 7e] | 1000 nM | 2880 nM | 31% | – | 39.6 nM | 34% | – | –
21 | CN1[C@@H]2CC[C@H]1C[C@@H](OC(c1ccc(F)cc1)c1ccc(Cl)c(Cl)c1)C2 (stereo partly drawn) [Compound 7l] | 369 nM | 24 nM | 80.3% | 18.9 nM | 33 nM | 57.8% | – | Ki [2, 8]: > 691 nM; Ki [4]: > 9000 nM
22 | CN1[C@@H]2CC[C@H]1C[C@@H](OC(c1ccccc1)c1ccc(O)cc1)C2 (stereo partly drawn) [Compound 7r, 3α-4'-Hydroxy-(diphenylmethoxy)tropane] | 17.7 nM | 677 nM | 23.3% | 297 nM | 2.1 nM | 27.3% | – | –
23 | COc1ccc(C(O[C@H]2C[C@H]3CC[C@@H](C2)N3C)c2ccccc2)cc1 (stereo partly drawn) [Compound 7d, 4'-methoxy-3α-(diphenylmethoxy)tropane] | 18.9 nM | 468 nM | 30.5% | – | 4.2 nM | 30.9% | – | –
24 | CN1[C@@H]2CC[C@H]1C[C@@H](OC(c1ccccc1)c1ccc(F)cc1)C2 (stereo partly drawn) [Compound 7j] | 15 nM | – | 35.2% | – | 1.1 nM | 37.9% | – | –
25 | Fc1ccc(C(O[C@H]2C[C@H]3CC[C@@H](C2)N3CC2CC2)c2ccc(F)cc2)cc1 [JHW 013] | – | – | – | – | – | – | 180 nM | Ki [2]: 53.4 nM; Ki (muscarinic m1 receptors; Table IV, read-out: m1, Ki): 7.7 nM; Ki [4]: 117 nM
26 | CCCCN1[C@@H]2CC[C@H]1C[C@@H](OC(c1ccc(F)cc1)c1ccc(F)cc1)C2 [JHW 007] | – | – | – | – | – | – | – | Ki (muscarinic m2 receptors; Table IV): 308 nM; muscarinic m2 affinity relative to dopamine transporter affinity (muscarinic m2 receptors): significantly lower binding affinities at the muscarinic m1 and m2 receptors as compared to binding affinities at the dopamine transporter; IC50 ([1]; Table IV footnote d: biphasic inhibition curve, IC50 in nM, read-out: [^3 H]DAU (inhibition of [^3 H]-Dopamine Uptake), biphasic inhibition curve): 371 nM; Ki (muscarinic m1 receptors): 527 nM; muscarinic m1 affinity relative to dopamine transporter affinity (muscarinic m1 receptors): significantly lower binding affinities at the muscarinic m1 and m2 receptors as compared to binding affinities at the dopamine transporter
